Reference: ChEMBL document CHEMBL3879914, “Inhibitors of central nervous system vasoactive inhibitory peptide receptor 2” (2014)
pIC50: −log10 of the molar value. Calls of active or inactive are those of the source. The calls are words filed in the database; no cut-off is given here.

How the values were obtained:
[1] = molecular target: T1, Vasoactive intestinal polypeptide receptor 2 (Homo sapiens, UniProt P41587); assay: (§1) Antagonist activity at recombinant human N-terminal signal peptide/FLAG epitope-tagged Rluc8-fused VIPR2 expressed in HEK293 cells assessed as inhibition of VIP-induced human mVenus-beta-arrestin2 binding preincubated for 5 mins with luciferin, coelenterazine H followed by VIP addition measured after 5 mins by BRET assay; format: cell-based
T1 sequence (P41587 whole entry): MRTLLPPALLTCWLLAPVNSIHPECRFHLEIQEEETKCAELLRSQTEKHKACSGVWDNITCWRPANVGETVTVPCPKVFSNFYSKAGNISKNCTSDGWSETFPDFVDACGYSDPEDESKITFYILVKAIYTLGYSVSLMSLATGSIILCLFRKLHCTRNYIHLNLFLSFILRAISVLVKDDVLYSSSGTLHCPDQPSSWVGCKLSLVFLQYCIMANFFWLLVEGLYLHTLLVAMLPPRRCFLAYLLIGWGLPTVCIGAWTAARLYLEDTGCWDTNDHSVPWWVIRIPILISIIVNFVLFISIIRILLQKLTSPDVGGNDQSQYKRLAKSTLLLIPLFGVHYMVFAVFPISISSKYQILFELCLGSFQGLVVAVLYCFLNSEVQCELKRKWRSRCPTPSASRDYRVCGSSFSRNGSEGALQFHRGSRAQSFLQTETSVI

[2] = molecular target: T2, Vasoactive intestinal polypeptide receptor 2 (Homo sapiens) (UniProt P41587); assay: as §1, with “binding at 0.5 uM” for “binding”, “assay relative to control” for “assay”; format: cell-based
T2 sequence (whole entry): T1 sequence (P41587 whole entry)

[3] = molecular target: T2, Vasoactive intestinal polypeptide receptor 2 (Homo sapiens); assay: (§2) Antagonist activity at recombinant human N-terminal signal peptide/FLAG epitope-tagged VIPR2 expressed in HEK293 cells co-expressing CAMYEL assessed as inhibition of VIP-induced cAMP accumulation at 1 uM preincubated for 5 mins with luciferin, coelenterazine H followed by VIP addition measured after 5 mins by BRET assay relative to control; format: functional, cell-based
[4] = molecular target: T2, Vasoactive intestinal polypeptide receptor 2 (Homo sapiens); assay: as §1, with “binding at 5 uM” for “binding”, “assay relative to control” for “assay”; format: cell-based
[5] = molecular target: T2, Vasoactive intestinal polypeptide receptor 2 (Homo sapiens); assay: as §2, with “5” for “1”; format: functional, cell-based
[6] = molecular target: T2, Vasoactive intestinal polypeptide receptor 2 (Homo sapiens); assay: as §2, with “0.5” for “1”; format: functional, cell-based
[7] = molecular target: T2, Vasoactive intestinal polypeptide receptor 2 (Homo sapiens); assay: as §1, with “binding at 1 uM” for “binding”, “assay relative to control” for “assay”; format: cell-based
[8] = molecular target: T2, Vasoactive intestinal polypeptide receptor 2 (Homo sapiens); assay: as §2, with “[…]” for “HEK293”, “accumulation” for “accumulation at 1 uM”, “assay” for “assay relative to control”; format: functional, cell-based
[9] = molecular target: T1, Vasoactive intestinal polypeptide receptor 2; assay: Antagonist activity at human VIPR2 expressed in HEK293 cells assessed as inhibition of VIP-induced cAMP accumulation incubated for 30 mins by HTRF assay; format: functional, cell-based
[10] = molecular target: T1, Vasoactive intestinal polypeptide receptor 2; assay: Antagonist activity at human VIPR2 expressed in HEK293 cells assessed as inhibition of VIP-induced beta-arrestin 2 binding incubated for 2 hrs by beta-galactosidase assay; format: cell-based

SMILES | pIC50 [1] | inhibition [2] | inhibition [3] | inhibition [4] | inhibition [5] | inhibition [6] | inhibition [7] | inhibition [8] | pIC50 [9] | pIC50 [10]
O=C(N[C@H]1c2ccccc2C[C@H]1O)[C@H](Cc1ccccc1)C[C@H](O)CNS(=O)(=O)c1ccc2c(c1)OCCO2 | 4.47 to 6.69 |  |  |  |  |  |  |  |  | 
CCc1ccc(S(=O)(=O)NC[C@@H](O)C[C@@H](Cc2ccccc2)C(=O)N[C@H]2c3ccccc3C[C@H]2O)cc1 | 4.34 to 5.95 |  |  |  |  |  |  |  |  | 
CO[C@@H]1Cc2ccccc2[C@@H]1NC(=O)[C@H](Cc1ccccc1)C[C@H](O)CNS(=O)(=O)c1ccc(Cl)cc1 | 5.40 | 13.3% |  |  |  |  |  |  |  | 
CCCCNC(=O)[C@@H](Cc1ccccc1)C[C@H](O)CNS(=O)(=O)c1ccc([N+](=O)[O-])cc1 | 2.74 | 13.4 to 26.8% | 0.6% | 20.7% | 6.2% | -1.5% | 20.4% |  |  | 
CC(=O)c1ccc(S(=O)(=O)NC[C@@H](O)C[C@@H](Cc2ccccc2)C(=O)N[C@H]2c3ccccc3C[C@H]2O)cc1 |  | 58.3 to 92.3% | 61.1% | 88.7% | 96% | 38.6% | 78% | Active |  | 
Cc1ccc(S(=O)(=O)NC[C@@H](O)C[C@@H](Cc2ccccc2)C(=O)N[C@H]2c3ccccc3C[C@H]2O)cc1 | 5.70 to 5.93 | 62.3 to 94.1% | 63.5% | 90% | 98.2% | 42.2% | 80.4% |  |  | 
CO[C@H]1Cc2ccccc2[C@@H]1NC(=O)[C@H](Cc1ccccc1)C[C@H](O)CNS(=O)(=O)c1ccc2c(c1)OCCO2 | 5.22 | 28.1% |  |  |  |  |  |  |  | 
O=C(N[C@H]1c2ccccc2C[C@H]1O)[C@H](Cc1ccccc1)C[C@H](O)CNS(=O)(=O)c1ccc([N+](=O)[O-])cc1 |  | 2.6 to 84.5% | 70.9 to 86.1% | 29.3 to 92% | 97.8 to 100% | 38.7 to 74.3% | -2.6 to 74.6% |  | 5.42 | 5.64
O=C(N[C@H]1c2ccccc2C[C@H]1O)[C@H](Cc1ccccc1)C[C@H](O)CNS(=O)(=O)c1ccc(Cl)cc1 | 5.69 to 6.55 |  |  |  |  |  |  |  |  | 
CO[C@@H]1Cc2ccccc2[C@@H]1NC(=O)[C@H](Cc1ccccc1)C[C@H](O)CNS(=O)(=O)c1ccc(C(C)=O)cc1 | 5.30 | 76.2% |  |  |  |  |  |  |  | 
O=C(NCCc1cccc(Cl)c1)[C@@H](Cc1ccccc1)C[C@H](O)CNS(=O)(=O)c1ccc([N+](=O)[O-])cc1 |  | 11.1 to 13.8% | 10.7% | 14.7% | 13% | 9.3% | 23.4% |  |  | 
